Entries after “also recorded” stand apart in the source; their conditions may differ.
Columns and labels:
[1] = tested on: breast epithelial proliferation; conditions: three premenopausal volunteers; cited from earlier work
[2] = tested on: contralateral breast cancer; conditions: postmenopausal breast cancer patients; cited from earlier work
[3] = tested on: WID-Breast29 (mean methylation level of 37 CpGs) in breast tissue; test: WID-Breast29 in breast biopsies before and after treatment (clinical trials, Set 3); type: in vivo, human
Text: Set 3: to assess the performance of the WID-Breast29 test monitoring preventive measures in real time. The samples were obtained from two clinical trials (FIG. 4) as follows.
Trial 1 was “Mifepristone treatment prior to insertion of a levonorgestrel releasing intrauterine system for improved bleeding control—a randomised controlled trial” (1) (EudraCT number: 2009-009014-40; Regional ethical review board at Karolinska Institutet permit 2009/144-31/4). The primary objective was to assess the effect of mifepristone pre-treatment on the initial bleeding pattern after insertion of a levonorgestrel releasing intrauterine system. An included secondary objective was to study the effect of mifepristone on breast tissue.
Trial 2 was “The Effect of a Progesterone Receptor Modulator on Breast Tissue in Women with BRCA-1 and -2 Mutations” (ClinicalTrials.gov Identifier: NCT01898312; regional ethical review board at Karolinska Institutet permit 2012/729 31/1). The core objective of this ongoing study is to assess the safety and effect of treatment with mifepristone on epithelial cell proliferation in human breast tissue in women with BRCA-1 or -2 mutations prior to protective mastectomy.
(§1) Study subjects for both trials were healthy premenopausal women aged 18 and above with regular menstrual cycles lasting 25-35 days and with no contraindications to mifepristone. The main exclusion criteria were: use of any hormonal or intrauterine contraception and pregnancy or breastfeeding two months prior to the study; a history of breast cancer or other malignancies and adnexal abnormality upon transvaginal ultrasound examination. All women were instructed to use barrier contraceptive methods throughout the duration of the study. After signing an informed consent, study subjects in both trials were randomised 1:1 or 1:2 into the vitamin arm (Triobe®—used as a comparator in these studies) or mifepristone arm in Trial 1 and Trial 2, respectively. One group (i.e. 16 BRCA carriers and 28 controls) was treated with 50 mg mifepristone (one quarter of 200 mg Mifegyne®, Exelgyn, Paris, France) every other day for two months in Trial 1 (n=28) and three months in Trial 2 (n=16) starting on the first day of the menstrual cycle. As mifepristone is only available in 200 mg tablets in Sweden, a study nurse divided the tablets into 4 parts (each 50 mg) and instructed the study subjects to take one part every other day. The other group (i.e. 8 BRCA carriers and 29 controls) received Triobe® tablets which are visually identical to mifepristone and were also divided into 4 parts [one quarter of TrioBe® contains 0.125 mg cyanocobalamin (Vitamin B12), 0.2 mg folic acid (Vitamin B9), and 0.75 mg Pyridoxinhydrochlorid (Vitamin B6)]. Tablets were dispensed for two weeks at a time. […]

[4] = tested on: BRCA-mediated breast cancer; conditions: rodents; cited from earlier work
[5] = tested on: WID-Breast5 (mean PMR of MTA1, HOXD12, LHX8, NEUROD1, CBLN4) in breast tissue; test: WID-Breast5 (MethyLight PMR) in breast biopsies before and after treatment (Set 3); type: in vivo, human
Text: as §1, with “time. Core needle aspiration biopsies were collected during the luteal phase before treatment and at the end of treatment during the luteal phase (vitamin treatment) or corresponding time of the cycle (mifepristone treatment). The biopsies were collected under ultrasound guidance from the upper outer quadrant of one breast using a 14 Gauge needle with an outer diameter of 2.2 mm. The end-of-treatment breast biopsy was taken from the same area. From Trial 1, 12 women from each of the vitamin and mifepristone groups were included in this study; of these, 11 and 9 women, respectively, had provided sufficient DNA from the pre- and post-treatment biopsies for subsequent processing and analysis.” for “time.”
Sodium bisulfite conversion of genomic DNA and the MethyLight assay were performed as previously described (A. Jones et al., Role of DNA methylation and epigenetic silencing of HAND2 in endometrial cancer development. PLoS Med 10, e1001551 (2013)). […] The percentage of fully methylated molecules at a specific locus has been calculated by dividing the GENE:COL2A1 ratio of a sample by the GENE:COL2A1 ratio of SssI-treated human white blood cell DNA and multiplied by 100. […]

[6] = tested on: mammary cancer; conditions: mice; cited from earlier work
[7] = tested on: breast tissue; conditions: healthy women; cited from earlier work
[8] = biopsies before and after 2-3 month treatment

Denosumab: fully humanised monoclonal antibody that binds RANKL
effect on breast epithelial proliferation [1]: reduce breast epithelial proliferation
impact on the incidence of contralateral breast cancer [2]: does not appear to impact

CC#C[C@]1(O)CC[C@H]2[C@@H]3CCC4=CC(=O)CCC4=C3[C@@H](c3ccc(N(C)C)cc3)C[C@@]21C [mifepristone]
BRCA mutant volunteers not showing a reduction of the WID-Breast29 after treatment ([3]; BRCA mutant volunteers (4/11)): 36%
women exhibiting a lower WID-Breast29 after treatment ([3]; all women of the group (15 vitamins, 20 mifepristone), biopsies before and after 2-3 month treatment): 80%
change in WID-Breast29 after treatment (paired-sample t-test) [3, 8]: highly significant reduction; also recorded: significantly reduced
control volunteers showing a reduction of the WID-Breast29 after treatment ([3]; healthy control volunteers (n=9)): 100%
prevention of BRCA-mediated breast cancer formation [4]: can be prevented
BRCA mutant volunteers not showing a reduction of the WID-Breast5 after treatment ([5]; BRCA mutant volunteers (6/10)): 60%
women exhibiting a lower WID-Breast5 after treatment ([5]; all women of the group (12 vitamins, 16 mifepristone), biopsies before and after 2-3 month treatment): 75%
change in WID-Breast5 after treatment (paired-sample t-test) [5, 8]: highly significant reduction; also recorded: significantly reduced
control volunteers showing a reduction of the WID-Breast5 after treatment ([5]; healthy control volunteers (n=6)): 100%
effect on mammary cancer development [6]: reduce mammary cancer development
effect on proliferation in breast tissue [7]: antiproliferative effect

From US20240043933A1, “METHODS FOR DETECTING AND PREDICTING BREAST CANCER” (UCL Business Ltd, priority 2020, published 2024)
